This assay addresses PAS domain-containing serine/threonine-protein kinase (Homo sapiens, UniProt Q96RG2). Nature of the assay: FRET Assay : Table 3: In the presence of kinase and ATP, the Ulight-peptide is phosphorylated and captured by an anti-phospho-substrate antibody, which brings the Eu chelate donor and Ulight acceptor dyes into close proximity. Upon excitation at 340 nm, the Eu chelate transfers its energy to the Ulight dye, resulting in a fluorescent light emission at 665 nm. Titration of kinase at 1 mM ATP was achieved via the following protocol. After making serial three-fold dilutions of PASK (Invitrogen) in reaction buffer across the plate; 5 μl of kinase dilution and 5 μl substrate/ATP mix were added to the wells of the white Optiplate-384 (PerkinElmer). The contents of the plate were and incubated at RT for 1 h. The reaction was stopped by adding 5 μl of stop solution to each test well followed by mixing and incubation at RT for 10 minutes. 5 μl of detection mix (detection antibody diluted in detection buffer) was added; the contents of the plate were mixed and then incubated in the dark for 1 hour at RT. The signal was recorded at TR-FRET mode (665 nm/615 nm). The results were graphed to calculate the EC50.

PAS domain-containing serine/threonine-protein kinase, sequence (Q96RG2 whole entry, the tested form may be a part): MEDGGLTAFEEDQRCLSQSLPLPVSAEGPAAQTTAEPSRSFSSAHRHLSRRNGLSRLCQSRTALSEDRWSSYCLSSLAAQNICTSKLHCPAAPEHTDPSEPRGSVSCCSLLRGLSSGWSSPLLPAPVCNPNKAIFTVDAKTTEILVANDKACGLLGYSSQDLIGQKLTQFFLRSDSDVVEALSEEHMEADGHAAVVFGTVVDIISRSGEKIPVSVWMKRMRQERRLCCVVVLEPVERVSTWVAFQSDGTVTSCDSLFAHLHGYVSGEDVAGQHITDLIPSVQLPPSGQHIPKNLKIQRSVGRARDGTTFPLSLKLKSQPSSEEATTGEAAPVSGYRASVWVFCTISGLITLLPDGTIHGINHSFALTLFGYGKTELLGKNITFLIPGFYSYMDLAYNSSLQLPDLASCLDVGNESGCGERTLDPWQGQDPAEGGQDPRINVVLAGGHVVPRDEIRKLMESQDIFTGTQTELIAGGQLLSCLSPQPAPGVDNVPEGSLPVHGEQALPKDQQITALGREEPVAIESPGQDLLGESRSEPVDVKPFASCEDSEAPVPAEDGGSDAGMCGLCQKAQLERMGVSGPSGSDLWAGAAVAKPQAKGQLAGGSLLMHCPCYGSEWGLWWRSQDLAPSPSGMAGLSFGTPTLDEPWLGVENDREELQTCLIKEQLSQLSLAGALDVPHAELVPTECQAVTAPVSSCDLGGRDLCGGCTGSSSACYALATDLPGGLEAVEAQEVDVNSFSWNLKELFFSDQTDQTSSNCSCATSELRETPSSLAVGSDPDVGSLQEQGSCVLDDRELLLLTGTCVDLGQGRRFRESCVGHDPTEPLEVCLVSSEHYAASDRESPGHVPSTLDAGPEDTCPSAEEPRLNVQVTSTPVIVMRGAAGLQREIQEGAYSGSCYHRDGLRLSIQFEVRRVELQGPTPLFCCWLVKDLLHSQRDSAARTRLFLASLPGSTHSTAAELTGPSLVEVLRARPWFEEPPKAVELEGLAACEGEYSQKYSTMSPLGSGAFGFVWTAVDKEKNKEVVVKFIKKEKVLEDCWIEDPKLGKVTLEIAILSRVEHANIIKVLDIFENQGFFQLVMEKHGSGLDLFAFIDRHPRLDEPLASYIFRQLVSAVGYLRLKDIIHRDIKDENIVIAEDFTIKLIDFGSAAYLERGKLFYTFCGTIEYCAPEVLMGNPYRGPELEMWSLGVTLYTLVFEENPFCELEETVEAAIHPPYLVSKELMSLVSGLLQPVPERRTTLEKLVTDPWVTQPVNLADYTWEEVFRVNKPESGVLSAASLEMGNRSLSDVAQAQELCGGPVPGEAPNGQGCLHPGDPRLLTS

For the compound `Nc1nn2c(c1-c1ccccn1)CC(c1ccc3c(c1)OC(F)(F)O3)=CC2=O`, the IC50 – broadly, the midpoint of a concentration-inhibition curve – is less than 10 µM.

Source of the values: ChEMBL document CHEMBL5728342, “Heterocyclic compounds for the inhibition of pask” (2021).
